From PMC13477270 (Nature structural & molecular biology, 2025)

Assays:
[1] = system: iTRIM37 KO RPE1 cells (PLK4 inhibition); format: cell-based; details: centrinone 100 or 150 nM, before TRIM37 knockout with doxycycline
iTRIM37 KO RPE1 cells = format: cell-based; details: centrinone pretreatment, then TRIM37 knockout with doxycycline

COc1c(Nc2cc(C)[nH]n2)nc(Sc2ccc(S(=O)(=O)Cc3cccc([N+](=O)[O-])c3F)cc2F)nc1N1CCOCC1 [centrinone]
centrosome depletion [1]: depleted centrosomes | frequency of centrobin condensate formation after centrosome loss (iTRIM37 KO RPE1 cells): at a frequency similar to that in constitutive TRIM37Δ cells with centrosomes
